Where two headings read alike, the source gives them in different places.
Assays:
[1] = test system: alpha adrenergic receptors; conditions: background statement; cited from earlier work
[2] = test system: alpha-2 adrenergic receptors; conditions: background statement; cited from earlier work
[3] = target: T1, receptor sites of clonidine (rat cortex membranes) (Rattus norvegicus, UniProt P22909); experiment: Affinity for the receptor sites of clonidine (3H clonidine binding, rat cortex membranes)
T1 construct: measured on rat cortex membranes; from tissue; host or cells: rat cortex membranes
T1 sequence (P22909 1-465): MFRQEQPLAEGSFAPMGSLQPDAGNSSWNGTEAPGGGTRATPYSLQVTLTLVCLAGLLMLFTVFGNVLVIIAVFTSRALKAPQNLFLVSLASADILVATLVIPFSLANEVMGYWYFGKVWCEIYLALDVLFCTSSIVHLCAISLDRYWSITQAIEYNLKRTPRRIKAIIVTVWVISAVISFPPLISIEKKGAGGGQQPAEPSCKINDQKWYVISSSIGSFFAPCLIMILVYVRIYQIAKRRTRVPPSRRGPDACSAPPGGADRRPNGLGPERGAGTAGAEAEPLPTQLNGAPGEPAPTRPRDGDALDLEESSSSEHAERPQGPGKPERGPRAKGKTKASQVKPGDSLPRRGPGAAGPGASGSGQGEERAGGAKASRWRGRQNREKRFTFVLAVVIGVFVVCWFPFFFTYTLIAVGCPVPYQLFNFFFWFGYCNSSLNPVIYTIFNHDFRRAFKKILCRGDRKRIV

Clc1cccc(Cl)c1N=C1NCCN1 [Clonidine, clonidine]
behaviour towards alpha adrenergic receptors [1]: behaves as an agonist towards alpha adrenergic receptors
affinity for alpha-2 receptors [2]: strong affinity

CNc1nc(N2CCN(C)CC2)nc(Cl)c1Cl [Example 9, 2-N-methylpiperazino-4-methylamino-5,6-dichloro-pyrimidine]
Ki [3]: 44 nM

CCc1c(Cl)nc(N2CCN(C)CC2)nc1NC(C)C [Example 25, 2-N-methylpiperazino-4-isopropylamino-5-ethyl-6-chloropyrimidine]
Ki ([3]; read-out: Ki): 51 nM

CC(C)Nc1nc(N2CCN(C)CC2)nc(Cl)c1Cl [Example 10, 2-N-methylpiperazino-4-isopropylamino-5,6-dichloropyrimidine]
Ki [3]: 5 nM

Cc1c(Cl)nc(N2CCN(C)CC2)nc1NC(C)C [Example 21, 2-N-methylpiperazino-4-isopropylamino-5-methyl-6-chloropyrimidine]
Ki [3]: 16 nM

COc1c(Cl)nc(N2CCN(C)CC2)nc1NC(C)C [Example 12, 2-N-methylpiperazino-4-isopropylamino-5-methoxy-6-chloropyrimidine]
Ki ([3]; read-out: Ki): 51 nM

CN1CCN(c2nc(N)c(Cl)c(Cl)n2)CC1 [Example 8, 2-N-methylpiperazino-4-amino-5,6-dichloropyrimidine]
Ki [3]: 51 nM
